Here are results for two compounds from patent publication US6924252B1, “Weed control” (Aventis Agriculture Limited, priority 1999, dated 2005).

Holding throughout (type): in vivo
One data set deals with weeds. Description: Activity on weeds after spraying on sown maize (Example 3). As to conditions: 105 g/ha, observed after 3 weeks. The text has this: Maize is sown and then grown up in area where weeds and weed seeds are present. The weeds are a selection from: Alopecurus myosuroides, Avena fatua, Digitaria sanguinalis, Echinochloa crus-galli, Eleusine indica, Lolium multiflorum, Setaria viridis, Sorghum halepense, Cyperus esculentus, Cyperus iria, Cyperus rotundus, Eleocharis acicularis, Abutilon theophrasti, Amaranthus retroflexus, Bidens pilosa, Chenopodium album, Galium aparine, Ipomgoea purpurea, Lamium purpureum, Matricaria inodora, Sesbania […], Sinapis arvensis, Solanum nigrum, Stellaria media, Veronica hederifolia, Veronica […], Viola arvensis and Xanthium strumarium. […] The amounts of isoxazole of formula (I) and DKN were measured after 4 days in a 5 cm deep soil core around the seed or seedling. The weight ratio of isoxazole: […]

Data set [1] concerns Amaranthus retroflexus. In words: Sequential soil surface application on plots (Example 5). The following applies: 14 DAT. From the text: (§1) Maize is sown and grown up in an area where weeds and weed seedlings are present. The weeds are Amaranthus retroflexus, Echinochloa crus-galli and Setaria viridis. Solutions of isoxazole in acetonitrile were applied directly to the soil surface at dose rates of 100, 50 and 25 g/ha to plots A, B and C respectively. 1 DAT dose rates of 50 and 25 g/ha were applied to plots B and C respectively, 2 and 3 DAT a dose rate of 25 g/ha was applied to plot C.
(§2) Activity of the isoxazole on maize and weed species was observed 14 DAT.

Data set [2] relates to Maize. The data set is described as above. As to conditions: 14 DAT.
Description: as §1, §2

Data set [3] has as its system Setaria viridis. The data set is described as above. As to conditions: 14 DAT.
Description: as §1, §2

The test system of another data set is Echinochloa crus-galli. Described as above. The following applies: 14 DAT.
Description: as §1, §2

Data set [4] relates to Maize. In words: Activity on crop after spraying on sown maize (Example 3). The following applies: 105 g/ha, observed after 3 weeks. From the text:
Maize is sown and then grown up in area where weeds and weed seeds are present. The weeds are a selection from: Alopecurus myosuroides, Avena fatua, Digitaria sanguinalis, Echinochloa crus-galli, Eleusine indica, Lolium multiflorum, Setaria viridis, Sorghum halepense, Cyperus esculentus, Cyperus iria, Cyperus rotundus, Eleocharis acicularis, Abutilon theophrasti, Amaranthus retroflexus, Bidens pilosa, Chenopodium album, Galium aparine, Ipomgoea purpurea, Lamium purpureum, Matricaria inodora, Sesbania exalta, Sinapis arvensis, Solanum nigrum, Stellaria media, Veronica hederifolia, Veronica Persia, Viola arvensis and Xanthium strumarium.
After one week sowing the maize, isoxazole is sprayed as an encapsulated formulation as hereinbefore described at a rate of 105 g/ha of herbicidally active compound, the weight ratio of isoxazole: copolyester being 1:10. The amounts of isoxazole of formula (I) and DKN were measured after 4 days in a 5 cm deep soil core around the seed or seedling.
The activity of the isoxazole on the crop and weeds was observed after 3 weeks, and found to be equal to 2% and 95% respectively.

Data set [5] concerns Amaranthus retroflexus. In words: Glasshouse pot test, soil surface application, visual % reduction (Example 1). The following applies: 14 DAT. How it is done: (§3) 7×7 cm^2 pots were filled with a non-sterile loam soil. Weed seeds (Amaranthus retroflexus, Echinochloa crus galli and Setaria viridis) were placed in three separate shallow wells with a maize seed (Pioneer 3394) inserted to a depth of 4 cm in between in each pot and the seeds lightly covered with soil. A 1 ml solution of technical isoxaflutole, suitably diluted to give a dose equivalent to 6.25, 12.5, 25, 50 and 100 g/ha in acetonitrile, was pipetted evenly on the soil surface of pots (replicated 10 times), according to the following regime. On day 1, a set of 5 pots were treated with 5 dose rates (6.25-100 g/ha) and set aside in the glasshouse. At the same time, on day 1 a second set of 4 pots were with 4 dose rates (treatment A. 6.25-50 g/ha) along with a third set of 3 pots treated with 3 dose rates (treatment B: 6.25-25 g/ha). On day 2 each of the second and third pots were treated again the pots receiving identical treatments A and B and second set of pots set aside in the glasshouse. On day 3 each of the third set of pots were treated again, the pots receiving identical treatment B. On day 4 each of the third set of pots were treated, the pots receiving identical treatment B and the pots set aside in the glasshouse. The pots were maintained in a glasshouse, with overhead watering (3×daily) and supplementary lighting. Visual assessment of % reduction, compared to untreated control plants was recorded 14 days after treatment. The results (average of 10 replicates) arm shown on Table 1, where the dosing regime refers to the number of daily applications followed by the dose of compound on each day.

In data set [6] the test system is Setaria viridis. The description is as above. As to conditions: 14 DAT. The protocol: as §3
Another data set concerns Echinochloa crus galli. Described as above. As to conditions: 14 DAT. How it is done: as §3
Where [7] appears, read: dosing regime 2 × 6.25 g/ha (daily applications × dose).

On to `CS(=O)(=O)c1cc(C(F)(F)F)ccc1C(=O)c1cnoc1C1CC1` [isoxazole], for which the “activity of the isoxazole on the weeds” value in the data set with weeds is reported as 95%. Besides, the “Activity AMARE” value was 79 with Amaranthus retroflexus [1] (dosing regime 1 × 100 g/ha), 78 with Amaranthus retroflexus [1] (dosing regime 2 × 50 g/ha) and 90 in the data set on Amaranthus retroflexus [1] (dosing regime 4 × 25 g/ha). Moreover, the “Activity Maize” value is 8 with Maize [2] (dosing regime 1 × 100 g/ha), 10 in the data set with Maize [2] (dosing regime 2 × 50 g/ha) and 6 in the data set with Maize [2] (dosing regime 4 × 25 g/ha). Besides, the “Activity SETVI” value in the data set with Setaria viridis [3] (dosing regime 1 × 100 g/ha) was 59; in the data set on Setaria viridis [3] (dosing regime 2 × 50 g/ha), 66; in the data set with Setaria viridis [3] (dosing regime 4 × 25 g/ha) it was 77. Also, the “Activity ECHCG” value in the data set with Echinochloa crus-galli (dosing regime 1 × 100 g/ha) was 94; in the data set with Echinochloa crus-galli (dosing regime 2 × 50 g/ha), 96; in the data set with Echinochloa crus-galli (dosing regime 4 × 25 g/ha), 100. Besides, in the data set on Maize [4], the “activity of the isoxazole on the crop” value turned out to be 15%.
`CS(=O)(=O)c1cc(C(F)(F)F)ccc1C(=O)c1cnoc1C1CC1` [isoxaflutole, 5-cyclopropyl-4-(2-methylsulphonyl-4-trifluoromethylbenzoyl)isoxazole]: the “% Damage Amare” value in the data set on Amaranthus retroflexus [5] (dosing regime 1 × 12.5 g/ha) was 0%; in the data set on Amaranthus retroflexus [5] (dosing regime 1 × 25 g/ha), 8%; with Amaranthus retroflexus [5] (dosing regime 1 × 50 g/ha), 50%; in the data set with Amaranthus retroflexus [5] (dosing regime 1 × 100 g/ha), 79%; in the data set with Amaranthus retroflexus [5] (setting [7]), 34%; with Amaranthus retroflexus [5] (dosing regime 2 × 12.5 g/ha) it was 46%. Also, the “% Damage Amare” value is recorded as 42% in the data set on Amaranthus retroflexus [5] (dosing regime 2 × 25 g/ha); 78% with Amaranthus retroflexus [5] (dosing regime 2 × 50 g/ha); 80% in the data set on Amaranthus retroflexus [5] (dosing regime 4 × 6.25 g/ha); 79% with Amaranthus retroflexus [5] (dosing regime 4 × 12.5 g/ha); 90% in the data set with Amaranthus retroflexus [5] (dosing regime 4 × 25 g/ha). Moreover, the “% Damage Setvi” value in the data set with Setaria viridis [6] (dosing regime 1 × 12.5 g/ha) is on record as 0%; in the data set with Setaria viridis [6] (dosing regime 1 × 25 g/ha), 10%; with Setaria viridis [6] (dosing regime 1 × 50 g/ha) it was 24%; with Setaria viridis [6] (dosing regime 1 × 100 g/ha) it was 59%; in the data set on Setaria viridis [6] (setting [7]), 18%; with Setaria viridis [6] (dosing regime 2 × 12.5 g/ha), 42%. The “% Damage Setvi” value in the data set on Setaria viridis [6] (dosing regime 2 × 25 g/ha) is listed as 44%; with Setaria viridis [6] (dosing regime 2 × 50 g/ha), 66%; in the data set with Setaria viridis [6] (dosing regime 4 × 6.25 g/ha), 75%; in the data set with Setaria viridis [6] (dosing regime 4 × 12.5 g/ha) it was 91%; with Setaria viridis [6] (dosing regime 4 × 25 g/ha), 77%. For the same compound, the “% Damage Echcg” value was 0% in the data set with Echinochloa crus galli (dosing regime 1 × 12.5 g/ha); 32% with Echinochloa crus galli (dosing regime 1 × 25 g/ha); 84% with Echinochloa crus galli (dosing regime 1 × 50 g/ha); 94% in the data set with Echinochloa crus galli (dosing regime 1 × 100 g/ha); 18% in the data set with Echinochloa crus galli (setting [7]); 68% with Echinochloa crus galli (dosing regime 2 × 12.5 g/ha). Also, the “% Damage Echcg” value in the data set on Echinochloa crus galli (dosing regime 2 × 25 g/ha) turned out to be 70%; with Echinochloa crus galli (dosing regime 2 × 50 g/ha) it was 96%; in the data set with Echinochloa crus galli (dosing regime 4 × 6.25 g/ha), 97%; with Echinochloa crus galli (dosing regime 4 × 12.5 g/ha) it was 100%; in the data set with Echinochloa crus galli (dosing regime 4 × 25 g/ha), 100%.
